The subject of one data set is erythropoietin (Epo). The data set is described as follows: Epo expression in isolated hepatocytes (RT-PCR). The data set is classed as cell-based, mouse. Particulars: 0.1-12.5 μg/ml, 24 hours; FIG. 4. How it is done: C57BL/6JNarl mice, 8-10 weeks of age, were purchased from the National Laboratory Animal Center (NLAC, Taiwan). The hepatocytes were isolated as previously described with modifications (Kreamer et al., 1986). Briefly, mice were anaesthetized with Avertin (2% (w/v) 2,2,2-tribromoethanol, i.p., 300 mg/Kg body weight) and the liver was perfused in situ through portal vein with a calcium-free Hank's balanced salt solution (HBSS) containing 0.5 mM Ethylene glycol-bis(2-aminoethylether)-N,N,N′,N′-tetraacetic acid (EGTA; Sigma-Aldrich). […] After 10 min of perfusion, HBSS containing 0.05% (w/v) collagenase (Type II; Worthington Biochemical Corporation) and 1 mM calcium chloride (Sigma-Aldrich) was introduced into the perfusion apparatus. The perfusion was continued for another 10 min at the same flow rate. The partially digested liver was removed, placed in a 60-mm culture dish (BD Falcon) containing HBSS, and gently minced to open the liver capsula. […]
The isolated hepatocytes were plated in 6-well plates (Costar) at approximately 6×10^5 cells/well in DMEM medium (Gibco/Invitrogen) containing 10% FBS (Gibco) in a humidified 37° C. incubator containing 5% CO2-95% air. […] The RNA of hepatocyte was extracted by RNA-Bee™ RNA isolation solvent (Tel-test) for reverse transcription, and the transcripts analyzed by PCR as previously described.

The subject of data set [1] is erythroid progenitor cells (bone marrow cells). The data set is described as follows: BFU-E assay on bone marrow cells isolated from treated mice of the cisplatin-induced acute renal failure model. The data set is classed as in vivo, C57BL/6JNarl mice. Particulars: 10~90 mg/kg/day; cells isolated day 28, cultured 12 days; versus control group; FIG. 11. The method, then:
(§1) The effects of Compound A treatment on cisplatin-induced acute renal failure animal model were investigated. C57BL/6JNarl mice (8-week-old) were purchased from the National Laboratory Animal Center (NLAC, Taiwan). Cisplatin (Sigma-Aldrich) was dissolved in normal saline (0.9% (w/v) sodium chloride, Sigma-Aldrich) at a concentration of 1 mg/ml, and injected into mice intraperitoneally (i.p.) according to the following schedule: day 1, 7 mg/kg; day 5, 6 mg/kg; and day 9, 6 mg/kg. For cisplatin-untreated normal mice group, normal saline injections of corresponding volumes were given i.p. in parallel. At day 13, serum samples were collected and blood urea nitrogen (BUN) contents were assayed. […]
(§2) At the end of the experiments described in EXAMPLE 6 (i.e., day 28), mice were sacrificed, kidney and liver tissues were removed, and bone marrow cells were isolated. […] The reverse-transcribed cDNA samples were analyzed by PCR using ABI GeneAmp™ system 2700 (Applied Biosystems) and the SYBR Green Master Mix kit (Applied Biosystems) using primers targeting toward mouse glyceraldehyde 3-phosphate dehydrogenase (GAPDH) (SEQ ID NOs: 5 and 6), erythropoietin (Epo) (SEQ ID NOs: 3 and 4) and hepatocyte growth factor (HGF) (SEQ ID NOs: 7 and 8) (Table 1). Results were expressed as relative index±S.E. (n=5˜6). […]

For data set [2] the test system is unchanged. The data set is described as follows: burst-forming-units-erythroid (BFU-E) assay on bone marrow cells in culture. The data set is classed as cell-based, C57BL/6JNarl mice. The settings on record: 0.5~12.5 μg/ml, 9 days, with 2 U/ml Epo and 10 ng/ml IL-3; versus 0 concentration; FIG. 2. The method, then:
To investigate the effect of “Compound A” on erythroid progenitor cells, burst-forming-units-erythroid (BFU-E) assay was conducted according to the procedures described in Corazza et al. (2004) and Jin et al. (2003) with modifications. Briefly, 6-week-old C57BL/6JNarl mice were purchased from the National Laboratory Animal Center (NLAC, Taiwan). Bone marrow cells were isolated from the mice, and the cell suspension was adjusted to about 8.3×10^4 cells/ml in α-MEM containing 15% (v/v) FBS (Gibco), 1% (v/v) BSA (Sigma-Aldrich), 0.8% (w/v) methylcellulose (Sigma-Aldrich), 10 μM 2-mercaptoethanol (Sigma-Aldrich), 2 U/ml Epo (Recormon Epoetin, Roche), and 10 ng/ml IL-3 (Sigma-Aldrich). Cells were plated at approximately 7.5×10^4 cells/well in 24-well plates (Falcon). They were incubated with different concentrations of Compound A (0, 0.1, 0.5, 2.5 and 12.5 μg/ml), respectively, for 9 days in a humidified 37° C. incubator containing 5% CO2-95% air. The colonies were stained with 3-(4,5-dimethylthiazol-2-yl)-2,5-diphenyl-tetrazolium bromide (50 m/50 μl/well) (MTT; Sigma-Aldrich). Plates were photographed while colonies of more than 50 cells were counted. Results were expressed as mean±S.E. (n=3). Statistical significance was evaluated by Student's t test (*P<0.05 and **P<0.01 versus control group (i.e., 0 concentration)).

Data set [3] concerns hepatocyte growth factor (HGF). The data set is described as follows: liver expression of HGF in cisplatin-induced acute renal failure animal model (PCR). Particulars: 10~90 mg/Kg/day, day 28; FIG. 10. The data set is classed as in vivo, mouse. The method, then: as §1, §2

On to `OC[C@H]1O[C@@H](Oc2c(O)cc(O)cc2/C=C/c2ccc(O)cc2)[C@H](O)[C@@H](O)[C@@H]1O` [Compound A, 2,3,5,4′-tetrahydroxystilbene 2-O-β-D-glucopyranoside], for which the “expression of Epo in hepatocytes” value in the data set with erythropoietin (Epo) is on record as “enhanced the expression of Epo in hepatocytes”. For the same compound, the “number of BFU-E colonies of bone marrow cells (relative index)” value in data set [1] is reported as “significantly increased the number of BFU-E colonies”. In addition, the “number of BFU-E colonies of bone marrow cells” value in data set [2] is given as “significantly increased the number of BFU-E colonies”. Moreover, the “expression of HGF in liver tissue (relative index)” value in data set [3] is recorded as “enhanced the expression of HGF in liver tissue”.

The values are drawn from patent publication US9980979B2, “Compounds and methods for enhancing erythropoiesis” (NATIONAL YANG-MING UNIVERSITY, priority 2008, dated 2018).
